From PubChem BioAssay (NCI)
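Where inhibition never reached the appropriate level, the endpoint shown equals the highest concentration tested. Otherwise, values were interpolated linearly from a five-concentration, 48-hour dose response in 96-well plates. At the TGI there is no net growth.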

Assays:
Assay in all cases: NCI anticancer screen, dose series, 48 h
SNB-78 CNS = system: SNB-78 CNS
RPMI-8226 leukemia = system: RPMI-8226 leukemia
SK-MEL-5 melanoma = system: SK-MEL-5 melanoma
SF-539 CNS = system: SF-539 CNS
HOP-62 NSCLC = system: HOP-62 NSCLC
OVCAR-5 ovarian = system: OVCAR-5 ovarian
HT29 colon = system: HT29 colon
SK-OV-3 ovarian = system: SK-OV-3 ovarian
786-0 renal = system: 786-0 renal
TK-10 renal = system: TK-10 renal
HCT-116 colon = system: HCT-116 colon
COLO 205 colon = system: COLO 205 colon
SNB-19 CNS = system: SNB-19 CNS
A549 NSCLC = system: A549 NSCLC
OVCAR-8 ovarian = system: OVCAR-8 ovarian
M19-MEL melanoma = system: M19-MEL melanoma
MOLT-4 leukemia = system: MOLT-4 leukemia
SK-MEL-28 melanoma = system: SK-MEL-28 melanoma
NCI-H460 lung = system: NCI-H460 lung
SF-268 CNS = system: SF-268 CNS
OVCAR-3 ovarian = system: OVCAR-3 ovarian
SN12C renal = system: SN12C renal
IGROV1 ovarian = system: IGROV1 ovarian
HOP-92 NSCLC = system: HOP-92 NSCLC
NCI-H23 lung = system: NCI-H23 lung
DMS 114 small cell lung = system: DMS 114 small cell lung
UO-31 renal = system: UO-31 renal
SF-295 CNS = system: SF-295 CNS
UACC-257 melanoma = system: UACC-257 melanoma
DLD-1 colon = system: DLD-1 colon
EKVX NSCLC = system: EKVX NSCLC
LXFL 529 NSCLC = system: LXFL 529 NSCLC
HCC-2998 colon = system: HCC-2998 colon
NCI-H226 lung = system: NCI-H226 lung
RXF-631 renal = system: RXF-631 renal
KM12 colon = system: KM12 colon
U251 CNS = system: U251 CNS
SR leukemia = system: SR leukemia
SW-620 colon = system: SW-620 colon
SNB-75 CNS = system: SNB-75 CNS
A498 renal = system: A498 renal
UACC-62 melanoma = system: UACC-62 melanoma
HOP-18 NSCLC = system: HOP-18 NSCLC
KM20L2 colon = system: KM20L2 colon
M14 melanoma = system: M14 melanoma
CAKI-1 renal = system: CAKI-1 renal
RXF 393 renal = system: RXF 393 renal
HCT-15 colon = system: HCT-15 colon
LOX IMVI melanoma = system: LOX IMVI melanoma
ACHN renal = system: ACHN renal
DMS 273 small cell lung = system: DMS 273 small cell lung
CCRF-CEM leukemia = system: CCRF-CEM leukemia
K-562 leukemia = system: K-562 leukemia
HL-60(TB) leukemia = system: HL-60(TB) leukemia
SK-MEL-2 melanoma = system: SK-MEL-2 melanoma
OVCAR-4 ovarian = system: OVCAR-4 ovarian
MALME-3M melanoma = system: MALME-3M melanoma
XF 498 CNS = system: XF 498 CNS
NCI-H522 lung = system: NCI-H522 lung

For `CC(=O)Oc1cc(C)c2c(c1OC(C)=O)CC1(O2)[C@@H](C)CCC2[C@@]3(C)CC[C@H](OC(C)=O)C(C)(C)C3CC[C@]21C` (some centres not stated), the TGI (SNB-78 CNS) was 4.64 µM, the TGI (RPMI-8226 leukemia) was > 100 µM and the TGI (SK-MEL-5 melanoma) was 10.7 µM. For the same compound, the TGI (SF-539 CNS) was 7.23 µM, the TGI (HOP-62 NSCLC) was 8.3 µM and the TGI (OVCAR-5 ovarian) was 17.4 µM. The TGI (HT29 colon) was 19.6 µM, the TGI (SK-OV-3 ovarian) was 25.5 µM and the TGI (786-0 renal) was 7.46 µM. The TGI (TK-10 renal) was 11.1 µM, the TGI (HCT-116 colon) was 13.3 µM and the TGI (COLO 205 colon) was 3.15 µM. The TGI (SNB-19 CNS) was 29.8 µM, the TGI (A549 NSCLC) was 33.2 µM and the TGI (OVCAR-8 ovarian) was 13.7 µM. For the same compound, the TGI (M19-MEL melanoma) was 5.04 µM, the TGI (MOLT-4 leukemia) was 42.2 µM and the TGI (SK-MEL-28 melanoma) was 15.9 µM. For the same compound, the TGI (NCI-H460 lung) was 10.8 µM, the TGI (SF-268 CNS) was 12.8 µM and the TGI (OVCAR-3 ovarian) was 8.41 µM. The TGI (SN12C renal) was 11.8 µM, the TGI (IGROV1 ovarian) was 4.49 µM and the TGI (HOP-92 NSCLC) was 8.01 µM. For the same compound, the TGI (NCI-H23 lung) was 11.5 µM, the TGI (DMS 114 small cell lung) was 4.49 µM and the TGI (UO-31 renal) was 3.93 µM. It also gave a TGI (SF-295 CNS) of 16.2 µM, a TGI (UACC-257 melanoma) of 21.8 µM and a TGI (DLD-1 colon) of 15.1 µM. It also gave a TGI (EKVX NSCLC) of 11.4 µM, a TGI (LXFL 529 NSCLC) of 16 µM and a TGI (HCC-2998 colon) of 19.2 µM. The TGI (NCI-H226 lung) was 25.6 µM, the TGI (RXF-631 renal) was 19.9 µM and the TGI (KM12 colon) was 18.2 µM. The TGI (U251 CNS) was 14.4 µM, the TGI (SR leukemia) was 11.3 µM and the TGI (SW-620 colon) was 12.3 µM. It also gave a TGI (SNB-75 CNS) of 14.9 µM, a TGI (A498 renal) of 21.4 µM and a TGI (UACC-62 melanoma) of 5.26 µM. It also gave a TGI (HOP-18 NSCLC) of 6.81 µM, a TGI (KM20L2 colon) of 28.3 µM and a TGI (M14 melanoma) of 18.7 µM. The TGI (CAKI-1 renal) was 4.3 µM, the TGI (RXF 393 renal) was 2.84 µM and the TGI (HCT-15 colon) was 13 µM. For the same compound, the TGI (LOX IMVI melanoma) was 14 µM, the TGI (ACHN renal) was 7.63 µM and the TGI (DMS 273 small cell lung) was 4.46 µM.

`CC1(Cl)CC2OC3(Br)C=CC(C)(O)C2(CC1Br)C3(C)C` (configuration not stated) was tested, and the TGI (SNB-78 CNS) was > 100 µM, the TGI (RPMI-8226 leukemia) was > 100 µM and the TGI (SK-MEL-5 melanoma) was > 100 µM. For the same compound, the TGI (SF-539 CNS) was > 100 µM, the TGI (HOP-62 NSCLC) was > 100 µM and the TGI (OVCAR-5 ovarian) was > 100 µM. For the same compound, the TGI (HT29 colon) was > 100 µM, the TGI (SK-OV-3 ovarian) was > 100 µM and the TGI (CCRF-CEM leukemia) was > 100 µM. For the same compound, the TGI (786-0 renal) was > 100 µM, the TGI (TK-10 renal) was > 100 µM and the TGI (HCT-116 colon) was > 100 µM. The TGI (COLO 205 colon) was > 100 µM, the TGI (SNB-19 CNS) was > 100 µM and the TGI (A549 NSCLC) was > 100 µM. For the same compound, the TGI (OVCAR-8 ovarian) was > 100 µM, the TGI (M19-MEL melanoma) was > 100 µM and the TGI (MOLT-4 leukemia) was > 100 µM. The TGI (SK-MEL-28 melanoma) was > 100 µM, the TGI (NCI-H460 lung) was > 100 µM and the TGI (SF-268 CNS) was > 100 µM. The TGI (OVCAR-3 ovarian) was > 100 µM, the TGI (SN12C renal) was > 100 µM and the TGI (K-562 leukemia) was > 100 µM. The TGI (IGROV1 ovarian) was > 100 µM, the TGI (HOP-92 NSCLC) was > 100 µM and the TGI (NCI-H23 lung) was > 100 µM. For the same compound, the TGI (DMS 114 small cell lung) was > 100 µM, the TGI (UO-31 renal) was > 100 µM and the TGI (HL-60(TB) leukemia) was > 100 µM. The TGI (SF-295 CNS) was > 100 µM, the TGI (UACC-257 melanoma) was > 100 µM and the TGI (DLD-1 colon) was > 100 µM. The TGI (EKVX NSCLC) was > 100 µM, the TGI (LXFL 529 NSCLC) was > 100 µM and the TGI (HCC-2998 colon) was > 100 µM. For the same compound, the TGI (NCI-H226 lung) was > 100 µM, the TGI (KM12 colon) was > 100 µM and the TGI (U251 CNS) was > 100 µM. The TGI (SR leukemia) was > 100 µM, the TGI (SW-620 colon) was > 100 µM and the TGI (SNB-75 CNS) was > 100 µM. For the same compound, the TGI (A498 renal) was > 100 µM, the TGI (UACC-62 melanoma) was > 100 µM and the TGI (SK-MEL-2 melanoma) was > 100 µM. For the same compound, the TGI (HOP-18 NSCLC) was > 100 µM, the TGI (OVCAR-4 ovarian) was > 100 µM and the TGI (KM20L2 colon) was > 100 µM. The TGI (M14 melanoma) was > 100 µM, the TGI (CAKI-1 renal) was > 100 µM and the TGI (RXF 393 renal) was > 100 µM. For the same compound, the TGI (HCT-15 colon) was > 100 µM, the TGI (LOX IMVI melanoma) was > 100 µM and the TGI (ACHN renal) was > 100 µM. The TGI (DMS 273 small cell lung) was > 100 µM and the TGI (MALME-3M melanoma) was > 100 µM.

For `C=CCc1cc(-c2cc(CC=C)c(O)c(CNC)c2)cc(CNC)c1O`, the TGI (SNB-78 CNS) was 40.8 µM, the TGI (RPMI-8226 leukemia) was 50.6 µM and the TGI (SK-MEL-5 melanoma) was 29.7 µM. It also gave a TGI (HOP-62 NSCLC) of 33.4 µM, a TGI (XF 498 CNS) of 30.3 µM and a TGI (HT29 colon) of 29.1 µM. The TGI (CCRF-CEM leukemia) was 57 µM, the TGI (786-0 renal) was 29 µM and the TGI (TK-10 renal) was 32.1 µM. The TGI (HCT-116 colon) was 28.1 µM, the TGI (COLO 205 colon) was 33.5 µM and the TGI (SNB-19 CNS) was 26.1 µM. For the same compound, the TGI (A549 NSCLC) was 33 µM, the TGI (OVCAR-8 ovarian) was 32.5 µM and the TGI (M19-MEL melanoma) was 27.2 µM. It also gave a TGI (MOLT-4 leukemia) of 31.1 µM, a TGI (SK-MEL-28 melanoma) of 34 µM and a TGI (NCI-H460 lung) of 30.1 µM. The TGI (SF-268 CNS) was 33.3 µM, the TGI (OVCAR-3 ovarian) was 27.9 µM and the TGI (SN12C renal) was 31.3 µM. For the same compound, the TGI (K-562 leukemia) was 27.3 µM, the TGI (IGROV1 ovarian) was 32.7 µM and the TGI (HOP-92 NSCLC) was 23.3 µM. The TGI (NCI-H23 lung) was 29.6 µM, the TGI (DMS 114 small cell lung) was 30.4 µM and the TGI (UO-31 renal) was 25.8 µM. For the same compound, the TGI (HL-60(TB) leukemia) was 35.2 µM, the TGI (NCI-H522 lung) was 28.3 µM and the TGI (SF-295 CNS) was 31 µM. For the same compound, the TGI (UACC-257 melanoma) was 29.9 µM, the TGI (DLD-1 colon) was 29.3 µM and the TGI (LXFL 529 NSCLC) was 28.5 µM. It also gave a TGI (HCC-2998 colon) of 30 µM, a TGI (NCI-H226 lung) of 31 µM and a TGI (RXF-631 renal) of 28.8 µM. For the same compound, the TGI (KM12 colon) was 30.2 µM, the TGI (U251 CNS) was 28.4 µM and the TGI (SW-620 colon) was 31.7 µM. The TGI (SNB-75 CNS) was 24.3 µM, the TGI (A498 renal) was 34.6 µM and the TGI (UACC-62 melanoma) was 31.9 µM. The TGI (SK-MEL-2 melanoma) was 32.9 µM, the TGI (OVCAR-4 ovarian) was 30.4 µM and the TGI (KM20L2 colon) was 30.8 µM. For the same compound, the TGI (M14 melanoma) was 30.5 µM, the TGI (HCT-15 colon) was 30.2 µM and the TGI (LOX IMVI melanoma) was 27.2 µM. The TGI (ACHN renal) was 31.7 µM and the TGI (MALME-3M melanoma) was 33.6 µM.
